Tests used:
IRAK4 [1] = target: T1, IRAK4 (Homo sapiens, UniProt Q9NWZ3); experiment: Human Whole Blood IRAK4 Degradation (whole blood monocyte, flow cytometry); format: cell-based; design: Whole blood was collected in heparinized tubes and plated on the same day as draw (day 0); from tissue; host or cells: human whole blood (CD14-positive monocytes gated by flow cytometry); conditions: human whole blood monocytes, read-out: IRAK4 degradation in whole blood: Average external Abs DC50
T1 sequence (Q9NWZ3 1-460): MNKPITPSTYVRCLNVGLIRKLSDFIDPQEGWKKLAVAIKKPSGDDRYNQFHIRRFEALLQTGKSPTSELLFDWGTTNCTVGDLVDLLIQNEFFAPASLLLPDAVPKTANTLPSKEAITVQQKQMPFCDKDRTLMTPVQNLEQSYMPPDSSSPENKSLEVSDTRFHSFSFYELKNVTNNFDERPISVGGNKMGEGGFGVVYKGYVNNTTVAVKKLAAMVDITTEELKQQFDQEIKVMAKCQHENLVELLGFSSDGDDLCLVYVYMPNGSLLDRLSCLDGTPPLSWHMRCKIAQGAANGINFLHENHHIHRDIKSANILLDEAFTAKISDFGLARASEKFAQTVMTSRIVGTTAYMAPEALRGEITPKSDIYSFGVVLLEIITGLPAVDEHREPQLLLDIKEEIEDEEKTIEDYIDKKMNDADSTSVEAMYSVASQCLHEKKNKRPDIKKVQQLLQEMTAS
Protocol: Whole blood was collected in heparinized tubes and plated on the same day as draw (day 0). Whole blood was aliquoted into deep well plates. Compound plates were prepared and a 10 point, 5-fold dilution was performed with a final DMSO concentration of 0.1%. Compound was added to whole blood deep well plate, sealed and incubated at 37° C., 5% C02 for 20 hours (for 4 hour treatment, compounds were prepared and added the following day). Following the treatment incubation period (day 1), BD lyse fix (BD#558049) was added to the whole blood plate, placed on plate shaker for 30 seconds and incubated for 10 mins at room temperature. Whole blood was then spun down and washed two times with PBS/0.5% BSA, aspirated to pellet and placed into −80° C. freezer until further processing for flow. On the flow run day, whole blood plates were thawed and samples were transferred to PCR plates. The pre-perm staining cocktail (CD3 Ax488/CD8 BUV805/CD14 BUV395/CD16/56 BV711/CD19 BV785) was added to samples and incubated for 30 minutes at room temperature. Samples were washed two times and permeabilized with Methanol for 10 minutes at 4° C. […] Twenty hour dose curves were calculated using a 4 parameter logistic regression curve fit, no constraints (Top doses were removed if hook effects were observed and the bottom was constrained to 0). […]

IRAK4 [2] = target: T1, IRAK4; experiment: IRAK4 MSD Degradation in OCI-LY10; format: cell-based; design: endogenous in cells; host or cells: OCI-LY10; conditions: OCI-LY10 cells, 4 hrs, Meso Scale Discovery
Protocol: Degradation of IRAK4 in OCI-LY10 was quantitatively measured using Meso Scale Discovery technology. OCI-LY10 cells were seeded in 96-well plates (Corning 3799) with a density of 300,000 cells per well in 100 μL fresh media. Compounds were then added to the assay plates with a final top concentration of 1 to 10 μM in a 1:3 dilution series with total of 8 doses. The assay plates were then incubated for 4 to 24 hours at 37° C. under 5% CO2. The assay plates were then centrifuged for 5 minutes and the cell pellets were treated with 100 μL/well RIPA lysis buffer (Boston BioProducts BP-115D) with proteinase inhibitors. To prepare MSD assay plates (Meso Scale Discovery Catalog number L15XA-3), the plates were coated with […] capture antibody (mouse Anti-IRAK4 antibody [2H9], ab119942) in PBS, at 40 μL/well. […] The assay plates were then incubated at room temperature for 1 hour, washed 3 times with 150 μL/well TBST buffer, and 150 μL/well MSD reading buffer (Meso Scale Discovery catalog number R92TC-2) was added. The plates were then analyzed by a MSD reader (Meso Scale Discovery, Model Quick Plex SQ 120). The data was then analyzed by software Prism 7.0 from GraphPad and the dose-depended IRAK4 degradation were fit using a three-parameter logistic equation to calculate DC50. […]

CN(C[C@H]1CC[C@H](n2cc(NC(=O)c3cnn4cccnc34)c(C(F)F)n2)CC1)C1CCN(c2cccc3c2n(C)c(=O)n3C2CCC(=O)NC2=O)CC1 (some centres unmarked) [I-1]
DC50 (IRAK4 [1]): < 0.05 µM | DC50 (IRAK4 [2]): < 0.05 µM
